Assays:
[1] = system: CD19+ B cells from CLL patients; assay type: cell-based; conditions: 0-10 uM FTY720; 15 CLL patients
Method: Cells: Blood was obtained from patients with B-cell CLL with informed consent under a protocol approved by the hospital internal review board. All patients examined in this series had immunophenotypically defined CLL as outlined by the modified 96 National Cancer Institute criteria. B-CLL cells were isolated from freshly donated blood using ficoll density gradient centrifugation (Ficoll-Paque Plus, Amershan Biosciences, Piscataway, N.J.). Isolated mononuclear cells were incubated in RPMI 1640 media (Gibco/Invitrogen, Carlsbad, Calif.) supplemented with 10% heat-inactivated fetal bovine serum (FBS, Hyclone Laboratories, Logan, Utah), 2 mM L-glutamine (Invitrogen, Carlsbad, Calif.), and penicillin (100 U/mL)/streptomycin (100 μg/ml) [Sigma-Aldrich, St. Louis] at 37° C. in an atmosphere of 5% CO2. Freshly isolated B-CLL cells were used in all experiments described herein. Enriched B-lymphocyte fractions were prepared by using MACS negative selection kit by Miltenyi Biotech (Auburn, Calif.) or by “Rosette-Sep” kit from Stem Cell Technologies (Vancouver, British Columbia, Canada) according to the manufacturer's instructions. Human B-lymphocyte cell lines Raji and Ramos were obtained from ATCC (Manassas, Va.) and the MEC cells were obtained from German cell line bank (Braunschweig, Germany). The 697-neo and 697-Bcl-2 cell lines were kind gift from Dr. John Reed (Burnham Institute, La Jolla, Calif.). Cells were cultured at 37° C. in an atmosphere of 5% CO2 in RPMI 1640 media (Gibco/Invitrogen, Carlsbad, Calif.) supplemented with 10% fetal bovine serum (Gibco/Invitrogen).
Analysis of cell viability and apoptosis: The cell viability was carried out by dual staining with Annexin V conjugated to flourescein-isothyocyanate (FITC) and Propidium iodide (PI) as described previously. Briefly, 1×10^6 cells were stained with Annexin V-FITC (BD Pharmingen) and Propidium iodide (BD Pharmingen) for 15 minutes in dark and analyzed by flow cytometry using a Beckman-Coulter EPICS XL cytometer (Beckman-Coulter, Miami, Fla.). Apoptotic cells were identified as Annexin V and/or PI positive cells. Cells excluding both FITC and PI were considered to be viable. The Annexin V^−/PI^− cells are represented as % live cells normalized to untreated controls.
B-CLL cells are reported to be resistant to apoptosis in-vivo. To systematically analyze the effects of FTY720 on B-CLL cells, purified CD19^+ cells from B-CLL patients were incubated with increasing concentrations of FTY720 ranging from 0, 0.5, 1, 1.5, 2.5, 5 or 10 uM. The cytotoxic effects were independently determined by flow cytometry using propidium iodide (PI) and Annexin V conjugated FITC reagents. Populations excluding both PI and Annexin V-FITC staining were considered viable. […]

PP2A = PP2A activity in lysates of Ramos B cell line; assay type: cell-based, Human
Method: PP2A Activity: The protein phosphatase activity of total cellular lysate was determined by measuring the generation of free PO4 from the threonine phosphopeptide using the malachite green-phosphate complex assay as described by the manufacturer (Upstate, Charlottesville, […].). Cell lysates were prepared in a low detergent lysis buffer (1% Nonidet P-40, 10 mM HEPES, 0.5M NaCl, 10% Glycerol, 1 mM PMSF, 5 mM Benzamidine, 10 μg/ml leupeptin). The phosphatase assay was performed in a PP2A-specific reaction buffer (Upstate) using 750 μM phosphopeptide substrate. After 30-min incubation at 30° C. malachite dye was added, and free phosphate was measured by optical density at 650 nm. To avoid variability among different immunoprecipitated samples, the phosphatase activities were normalized with the amount of PP2A immunoprecipitated, as detected and quantified by western blot analysis of each treatment group.
In order to determine if FTY720 induced activation of PP2A enzyme in CD19^+ B cells from CLL patients were treated with 10 uM FTY720 for 0, 1, 2, 3, 4 and 15 hrs and the PP2A activity in the lysates were quantified using a functional assay following immunoprecipitation of PP2A enzyme. As reported previously in other systems, FTY720 induced a consistent 2-3 fold increase in PP2A activation with the peak response observed at 4 hour post treatment (FIG. 6a). […]

[2] = system: acute myeloid leukemia (AML) cell lines; test: MTS proliferation assay in AML cell lines; assay type: cell-based; conditions: 48 hours
Method: Cell cultures were exposed for 48 hours to vehicle control and increasing concentrations of FTY720, and subsequently subjected to MTS assay per manufacturer's instructions. Mean concentrations (FIG. 9A) at which proliferation was inhibited by 50% (IC50) and representative dose curves (FIG. 9B) are shown. […] Using MTS assay, inhibition of cell proliferation for various derivatives was examined.

ERK1/2 = test: Western blot of ERK1/2 phosphorylation in Mino cells; assay type: cell-based, Human
Method: Binding of FTY720 accelerates homing of peripheral lymphocytes to lymph node and activation of […] leads to extracellular signal-related kinase 1/2 (ERK1/2) phosphorylation. To determine if FTY720 influenced phosphorylation status of ERK-1, Mino cells were treated with FTY720 and the ERK1/2 phosphorylation status was analyzed by westernblot analysis using phospho ERK-1/2 and ERK1/2 antibodies. […] Similar FTY720 induced time dependent phosphorylation of ERK1/2 was also observed in Jeko cell line (Data not shown). FTY720 induced activation Ras-Raf-MAP kinase signaling pathway resulting in activation of serine/threonine kinase may contribute to ERK1/2 phosphorylation. Consistent with hypothesis ERK1/2 phosphorylation has been reported to occur in cells treated with Sphingosie 1-phosphate, that shares structural similarity to FTY72014. The role of FTY720 induced Erk1/2 phosphorylation in either toxicity, deregulation of the proteins such as Cyclin D1 or Akt and/or accumulation cells in G1 with concomitant decrease in S phase remains to be tested. Nevertheless these studies have identified Cyclin D1 and Akt proteins as two potential biomarkers for FTY720 responsiveness in MCL patient cells.

CCCCCCCCc1ccc(CCC(N)(CO)CO)cc1.Cl [FTY720, 2-Amino-2-[2-(4-octylphenyl)ethyl]propane 1,3-diol hydrochloride]
viability of CD19+ B cells from CLL patients [1]: dose and time dependent decrease in viability
earliest time of FTY720 induced PP2A activation (PP2A): 3 h
proliferation of AML cell lines (MTS) [2]: inhibits proliferation
earliest time of ERK1/2 phosphorylation (ERK1/2): 2 h
time of maximal ERK1/2 phosphorylation (ERK1/2): 4 h

From US8318812B2, “Therapeutic agents for the treatment of lymphoid malignancies” (The Ohio State University Research Foundation, priority 2006, dated 2012)
